In patent USRE45173E1, “Inhibitors of CYP 17” (Novartis AG, priority 2009, dated 2014):
Structures can show the parent of a compound that is named as a salt.

The compounds below were run against recombinant human CYP17 enzyme (Homo sapiens (Human), UniProt P05093) (assay: Cytochrome P450, 17-20 lyase (CYP17-lyase) assay, tritiated acetic acid release from 17-α-hydroxy pregnenolone [21-3H]). Settings: human CYP17, substrate 0.25 μM; read-out: Lyase IC 50 nM Human/Rat (Human).
Format: biochemical
From the text: Assay method was adopted from a published protocol with some modifications to suit our requirements (Dmitry N Grigoryev et al, Analytical Biochemistry, (1999) 267, 319-330). […] Chloroform extraction removes the radioactive steroids and acetic acid is taken into aqueous layer. The tritiated acetic acid released in the assay thus extracted is quantified to determine the enzyme activity. […] The purified cell membrane preparations were used as the source for Human CYP17 enzyme. […] O, Nijar, et al., J Med Chem, (1998) 41, 902-912). […] Km for this substrate was determined by monitoring the tritiated acetic acid release as a function of substrate concentration. […] For the Km determination, the data was fit to a hyperbolic equation (Graphpad Prism® software IV). […] (Dmitry N. Grigoryev et al, Analytical Biochemistry (1999) 267, 319-330) […] NADPH is used at a final concentration of 4.2 mM. Total reaction volume was made up to 50 μL with 50 mM Phosphate buffer pH 7.5. The reaction mixture was incubated at room temperature for 90 minutes with gentle shaking. The reaction was stopped by the addition of 100 μL of buffer. 500 μL of 5% freshly prepared activated charcoal was added to the solution and mixed well by vortexing. The samples were centrifuged at 17568×g for 5 minutes. (14000 rpm). The supernatant was carefully transferred to fresh tube and 1.3 mL of scintillation fluid was added, mixed by vortexing. The radioactivity was measured in a 1450 MicroBeta TriLux™ scintillation counter from Wallac-Perkin Elmer®, USA. The measurements were carried out in 2.0 mL Eppendorforf™ tubes. […] The amount of tritiated acetic acid released is proportional to the lyase activity. Percent lyase activity in presence of inhibitor was calculated using the formula given below. […] Enzyme reaction in presence of inhibitor. • Positive control: […] For IC50 determination, the % inhibition was plotted as a function of inhibitor concentration. The data was fitted to sigmoidal equation using Graphpad Prism® software IV to generate IC50 values.

Chain of recombinant human CYP17 enzyme (P05093 whole entry): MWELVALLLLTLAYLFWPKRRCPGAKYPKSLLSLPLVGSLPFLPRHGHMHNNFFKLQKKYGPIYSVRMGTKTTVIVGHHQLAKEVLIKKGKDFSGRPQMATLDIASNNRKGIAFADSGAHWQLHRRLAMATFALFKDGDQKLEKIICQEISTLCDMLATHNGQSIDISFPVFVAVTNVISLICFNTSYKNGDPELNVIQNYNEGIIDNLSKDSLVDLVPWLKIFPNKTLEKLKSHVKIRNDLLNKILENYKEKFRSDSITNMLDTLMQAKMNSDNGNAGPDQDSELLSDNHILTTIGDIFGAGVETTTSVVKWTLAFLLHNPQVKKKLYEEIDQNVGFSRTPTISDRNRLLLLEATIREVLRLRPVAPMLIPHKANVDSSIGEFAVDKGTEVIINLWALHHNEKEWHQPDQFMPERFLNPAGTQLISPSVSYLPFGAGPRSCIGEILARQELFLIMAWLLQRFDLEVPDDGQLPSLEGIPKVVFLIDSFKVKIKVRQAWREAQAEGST

**Q.** For `Cc1ccncc1N1CCN(c2ccc(F)c(C#N)c2)C1=O` [Example 103A, 2-Fluoro-5-[3-(4-methyl-pyridin-3-yl)-2-oxo-imidazolidin-1-yl]-benzonitrile], which IC50 is on record?
**A.** 19 nM

**Q.** How did the IC50 turn out when `Cc1cn2cc(N3CCN(c4cnccc4C)C3=O)ccc2n1` [Example 104A] was run?
**A.** 1990 nM

**Q.** Which IC50 does the source give for `Cc1nc2ccc(N3CCN(c4cnccc4C)C3=O)cc2s1` [Example 105A, 1-(2-Methyl-benzothiazol-6-yl)-3-(4-methyl-pyridin-3-yl)-imidazolidin-2-one] here?
**A.** 1470 nM

**Q.** For `Cc1ccncc1N1CCN(c2cccc(C#N)c2)C1=O` [Example 106A, 3-[3-(4-Methyl-pyridin-3-yl)-2-oxo-imidazolidin-1-yl]-benzonitrile], which IC50 is on record?
**A.** 35 nM

**Q.** With `Cc1ccncc1N1CCN(c2c[nH]c3ccccc23)C1=O` [Example 107A, 1-(1H-Indol-3-yl)-3-(4-methyl-pyridin-3-yl)-imidazolidin-2-one] as the compound, how does the IC50 read?
**A.** 334 nM

**Q.** For `Cc1ccncc1N1CCN(c2ccc3[nH]cnc3c2)C1=O` [Example 108A, 1-(1H-Benzoimidazol-5-yl)-3-(4-methyl-pyridin-3-yl)-imidazolidin-2-one], which IC50 is on record?
**A.** 363 nM

**Q.** With `Cc1ccncc1N1CCN(c2csc3ccccc23)C1=O` [Example 109A, 1-Benzo[b]thiophen-3-yl-3-(4-methyl-pyridin-3-yl)-imidazolidin-2-one] as the compound, how does the IC50 read?
**A.** 158 nM

**Q.** For `Cc1ccncc1N1CCN(c2ccc3c(C)noc3c2)C1=O` [Example 111A, 1-(3-Methyl-benzo[d]isoxazol-6-yl)-3-(4-methyl-pyridin-3-yl)-imidazolidin-2-one], which IC50 is on record?
**A.** 106 nM

**Q.** For `Cc1ccncc1N1CCN(c2ccc(C#N)c(Cl)c2)C1=O` [Example 112A, 2-Chloro-4-[3-(4-methyl-pyridin-3-yl)-2-oxo-imidazolidin-1-yl]-benzonitrile], which IC50 is on record?
**A.** 28 nM

**Q.** With `Cc1ccncc1N1CCN(c2ccc3oncc3c2)C1=O` [Example 113A, 1-Benzo[d]isoxazol-5-yl-3-(4-methyl-pyridin-3-yl)-imidazolidin-2-one] as the compound, how does the IC50 read?
**A.** 230 nM

**Q.** Which IC50 does the source give for `Cc1ccncc1N1CCN(c2ccc3c(cnn3C)c2)C1=O` [Example 114A, 1-(1-Methyl-1H-indazol-5-yl)-3-(4-methyl-pyridin-3-yl)-imidazolidin-2-one] here?
**A.** 24 nM

**Q.** With `Cc1ccncc1N1CCN(c2ccc3[nH][nH]c(=O)c3c2)C1=O` [Example 117A, 5-[3-(4-Methyl-pyridin-3-yl)-2-oxo-imidazolidin-1-yl]-1,2-dihydro-indazol-3-one] as the compound, how does the IC50 read?
**A.** 94 nM

**Q.** For `Cc1ccncc1N1CCN(c2ccc3[nH]nc(N)c3c2)C1=O` [Example 118A, 1-(3-Amino-1H-indazol-5-yl)-3-(4-methyl-pyridin-3-yl)-imidazolidin-2-one], which IC50 is on record?
**A.** 17 nM

**Q.** With `Cc1ccncc1N1CCN(c2cnc3ccccn23)C1=O` [Example 119A, 1-Imidazo[1,2-a]pyridin-3-yl-3-(4-methyl-pyridin-3-yl)-imidazolidin-2-One] as the compound, how does the IC50 read?
**A.** 3200 nM

**Q.** Which IC50 does the source give for `Cc1ccncc1N1CCN(c2ccc3cn[nH]c3c2)C1=O` [Example 121A, 1-(1H-Indazol-6-yl)-3-(4-methyl-pyridin-3-yl)-imidazolidin-2-one] here?
**A.** 2.5 nM

**Q.** With `Cc1ccncc1N1CCN(c2cnc3[nH]cnc3c2)C1=O` [Example 122A, 1-(3H-Imidazo[4,5-b]pyridin-6-yl)-3-(4-methyl-pyridin-3-yl)-imidazolidin-2-one Trifluoroacetic Acid] as the compound, how does the IC50 read?
**A.** 383 nM

**Q.** For `Cc1ccncc1N1CCN(c2ccc3c(N)n[nH]c3c2)C1=O` [Example 123A, 1-(3-Amino-1H-indazol-6-yl)-3-(4-methyl-pyridin-3-yl)-imidazolidin-2-one], which IC50 is on record?
**A.** 10 nM

**Q.** Which IC50 does the source give for `O=C1N(c2ccc3ncsc3c2)CCN1c1cnccc1C(F)F` [Example 125A, 1-Benzothiazol-6-yl-3-(4-difluoromethyl-pyridin-3-yl)-imidazolidin-2-one] here?
**A.** 17 nM

**Q.** Which IC50 does the source give for `O=C1N(c2ccc3ncsc3c2)CCN1c1cnccc1CO` [Example 126A, 1-Benzothiazol-6-yl-3-(4-hydroxymethyl-pyridin-3-yl)-imidazolidin-2-one] here?
**A.** 25 nM

**Q.** For `O=C1N(c2ccc3ncsc3c2)CCN1c1cnccc1C(F)(F)F` [Example 128A, 1-Benzothiazol-6-yl-3-(4-trifluoromethyl-pyridin-3-yl)-imidazolidin-2-one], which IC50 is on record?
**A.** 44 nM

**Q.** With `N#Cc1ccncc1N1CCN(c2ccc3ncsc3c2)C1=O` [Example 129A] as the compound, how does the IC50 read?
**A.** 202 nM

**Q.** For `Cc1cccc(N2CCN(c3cnccc3C(F)(F)F)C2=O)c1` [Example 131A, 1-m-Tolyl-3-(4-trifluoromethyl-pyridin-3-yl)-imidazolidin-2-one], which IC50 is on record?
**A.** 103 nM

**Q.** `Cc1ccncc1N1CCN(c2cccc3ccccc23)C1=O` [Example 133A, 1-(4-Methyl-pyridin-3-yl)-3-naphthalen-1-O-imidazolidin-2-one] was tested. Which IC50 did it give?
**A.** 1970 nM

**Q.** With `Cc1ccncc1N1CCN(c2ccc3c(ccn3C)c2)C1=O` [Example 134A, 1-(1-Methyl-1H-indol-5-yl)-3-(4-methyl-pyridin-3-yl)-imidazolidin-2-one] as the compound, how does the IC50 read?
**A.** 950 nM

**Q.** Which IC50 does the source give for `Cc1ccncc1N1CCN(c2ccc3c(=O)[nH][nH]c3c2)C1=O` [Example 135A, 6-[3-(4-Methyl-pyridin-3-yl)-2-oxo-imidazolidin-1-yl]-1,2-dihydro-indazol-3-one] here?
**A.** 15.9 nM

**Q.** With `Cc1ccncc1N1CCN(c2csc3ccncc23)C1=O` [Example 136A, 1-(4-Methyl-pyridin-3-yl)-3-thieno[3,2-c]pyridin-3-yl-imidazolidin-2-one] as the compound, how does the IC50 read?
**A.** 500 nM

**Q.** For `Cc1ccncc1N1CCN(c2cn(C)c3ccc(Cl)cc23)C1=O` [Example 137A, 1-(5-Chloro-1-methyl-1H-indol-3-yl)-3-(4-methyl-pyridin-3-yl)-imidazolidin-2-one], which IC50 is on record?
**A.** 1550 nM

**Q.** How did the IC50 turn out when `Cc1ccncc1N1CCN(c2ccc3c(c2)CCC3)C1=O` [Example 138A, 1-Indan-5-yl-3-(4-methyl-pyridin-3-yl)-imidazolidin-2-one] was run?
**A.** 13 nM

**Q.** For `Cc1ccncc1-n1ccn(-c2ccc3sccc3c2)c1=O` [Example 139A, 1-Benzo[b]thiophen-5-yl-3-(4-methyl-pyridin-3-yl)-1,3-dihydro-imidazol-2-one], which IC50 is on record?
**A.** 83 nM

**Q.** How did the IC50 turn out when `Cc1ccncc1N1CCN(c2ccc(C#N)c(F)c2)C1=O` [Example 140A, 2-Fluoro-4-[3-(4-methyl-pyridin-3-yl)-2-oxo-imidazolidin-1-yl]-benzonitrile] was run?
**A.** 97 nM

**Q.** Which IC50 does the source give for `Cc1ccncc1N1CCN(c2ccc3[nH]nnc3c2)C1=O` [Example 141A, 1-(1H-Benzotriazol-5-yl)-3-(4-methyl-pyridin-3-yl)-imidazolidin-2-one Hydrochloride] here?
**A.** 13 nM

**Q.** Which IC50 does the source give for `Cc1ccncc1-n1ccn(-c2ccc3ncsc3c2)c1=O` [Example 142A, 1-Benzothiazol-6-yl-3-(4-methyl-pyridin-3-yl)-1,3-dihydro-imidazol-2-one] here?
**A.** 21 nM

**Q.** For `Cc1ccncc1N1CCN(c2ccc3c(N)nn(C)c3c2)C1=O` [Example 143A, 1-(3-Amino-1-methyl-1H-indazol-6-yl)-3-(4-methyl-pyridin-3-yl)-imidazolidin-2-one], which IC50 is on record?
**A.** 116 nM

**Q.** For `Cc1ccncc1N1CCN(c2ccc3cc[nH]c3c2)C1=O` [Example 144A, 1-(1H-Indol-6-yl)-3-(4-methyl-pyridin-3-yl)-imidazolidin-2-one], which IC50 is on record?
**A.** 174 nM

**Q.** How did the IC50 turn out when `Cc1ccncc1N1CCN(c2ccn3c(Cl)cnc3c2)C1=O` [Example 145A, 1-(3-Chloro-imidazo[1,2-a]pyridin-7-yl)-3-(4-methyl-pyridin-3-yl)-imidazolidin-2-one] was run?
**A.** 31 nM

Same assay, conditions: human CYP17, substrate 0.25 μM; read-out: Lyase IC 50 Human/Rat (Human)

**Q.** How did the IC50 turn out when `COc1nccc2scc(N3CCN(c4cnccc4C)C3=O)c12` [Example 110A, 1-(4-Methoxy-thieno[3,2-c]pyridin-3-yl)-3-(4-methyl-pyridin-3-yl)-imidazolidin-2-one] was run?
**A.** > 10000 nM

**Q.** `Cc1ccncc1N1CCN(c2ccc3c(c2)ncn3C)C1=O` [Example 116A, 1-(1-Methyl-1H-benzoimidazol-5-yl)-3-(4-methyl-pyridin-3-yl)-trifluoroacetic Acid] was tested. Which IC50 did it give?
**A.** > 10000 nM

**Q.** For `Cc1ccncc1N1CCN(c2cc3cnccc3s2)C1=O` [Example 120A, 1-(4-Methyl-pyridin-3-yl)-3-thieno[3,2-c]pyridin-2-yl-imidazolidin-2-one], which IC50 is on record?
**A.** 4000 nM

**Q.** `Cc1ccc(N2CCN(c3ccc4ncsc4c3)C2=O)cn1` [Example 127A, 1-Benzothiazol-6-yl-3-(6-methyl-pyridin-3-yl)-imidazolidin-2-one] was tested. Which IC50 did it give?
**A.** > 10000 nM

**Q.** For `Cc1ccncc1N1CCCN(c2ccc3ccccc3c2)C1=O` [Example 130A, 1-(4-Methyl-pyridin-3-yl)-3-naphthalen-2-yl-tetrahydro-pyrimidin-2-one], which IC50 is on record?
**A.** > 10000 nM

**Q.** How did the IC50 turn out when `Cc1ccncc1N1CCN(c2ccc3nn(C)cc3c2)C1=O` [Example 132A, 1-(2-Methyl-2H-indazol-5-yl)-3-(4-methyl-pyridin-3-yl)-imidazolidin-2-one] was run?
**A.** > 10000 nM

**Q.** For `Cc1ccncc1N1CCN(c2cn(C)c3cccc(C#N)c23)C1=O` [Example 146A, 1-Methyl-3-[3-(4-methyl-pyridin-3-yl)-2-oxo-imidazolidin-1-yl]-1H-indole-4-carbonitrile], which IC50 is on record?
**A.** > 10000 nM
